Article PMC2999418, “Biological Activity and Binding Site Characteristics of the PA1b Entomotoxin on Insects from Different Orders” (Journal of Insect Science, 2007)
pKd: −log10 of the molar value.

Tests used:
Mamestra brassicae = assay: Cabbage moth larval toxicity test on artificial medium with toxin; assay type: in vivo; details: 1000 µg PA1b per g of diet, larvae L1 to pupa; data not shown
Protocol: The cabbage moth Mamestra brassicae (Lepidoptera) was grown on the artificial medium described by Poitout and Bues ([1974]). PA1b was added to this media and the mortality of larvae (from L1 to pupa) was monitored daily.
(§1) All toxicity assays were carried out using a mixture of PA1b isoforms (98% purity by HPLC). All tests were performed on at least 30 insects for assays and for control test (without toxin), except for the three aphid species (50 insects) and for Trichogramma (more than 300 eggs by assays). When adults were used, the insects were synchronized at the imaginal molt. The statistical analyses were performed using the JMP software (SAS, Grégy-sur-Yerres FRA).

Acyrthosiphon pisum = assay: Aphid growth and toxicity assay on artificial diet with toxin; assay type: in vivo; details: after six days feeding
Protocol: (§2) Growth and toxicity assays were carried out on the aphids Aphis gossypii, Myzus persicae and Acyrthosiphon pisum, Hemiptera, according to Rahbé and Febvay ([1993]). Larvae of the fruit fly Drosophila melanogaster, Diptera, were provided by Dr. Allemand (UMR 5558 CNRS-UCBL, Lyon, France).
as §1
(§3) Figure 2. Effects of PA1b on three aphid species. Tests were carried out with artificial diet supplemented with the toxin at increasing concentrations, and mortality of the insects was monitored daily (relative larval survival is used in the graph). Circle : A. pisum; Square : M. persicae; Triangle : A. gossypii.

Aphis gossypii = assay: as above; assay type: in vivo; details: 1000 µg.ml^-1 in artificial diet
Protocol: as §2, §1, §3

Myzus persicae = assay: as above; assay type: in vivo; details: doses up to 1000 µg.ml^-1 in artificial diet
Protocol: as §2, §1, §3

A. famigatus = assay: Antifungal test, fungal growth; assay type: cell-based; details: increasing toxin concentration up to 64 µg-ml^-1, 24 and 48 hours
Protocol: (§4) A possible antimicrobial and antifungal activity of PA1b was next tested on four bacterial and three fungal species. The experiments were done using an increasing toxin concentration, up to 64 µg-ml^-1.

C. albicans = assay: Antifungal test, fungal growth; assay type: cell-based; details: increasing toxin concentration up to 64 µg-ml^-1, 24 and 48 hours
Protocol: as §4

C. glabrata = assay: Antifungal test, fungal growth; assay type: cell-based; details: increasing toxin concentration up to 64 µg-ml^-1, 24 and 48 hours
Protocol: as §4

[1] = target: PA1b binding protein on membrane extracts; assay: 125I-PA1b binding (competition) on insect membrane extracts; parameters: species or system Tribolium castaneum; details: T. castaneum membrane extracts; competition with purified 3741 isoform
Protocol: (§5) The isolation of membrane proteins for binding studies was performed as described by Gressent et al. ([2003]). For PA1b degradation tests, insect extracts were prepared as follows, 1 g of insects were ground with a mortar and pestle in liquid nitrogen. The resulting powder was resuspended in 2 ml of extraction buffer (20 mM Tris-HCl pH 8; 0.25 M sucrose; 2 mM MgCl2). The slurry was centrifuged for 2 min at 1000 g, and the supernatant was stored at -2O°C until required. All the operations were performed at 4°C.
(§6) The peptidic toxin PA1b-3471 isoform was labelled with I^125 to a specific radioactivity of about 900 Ci.mmor^-1, and then used for binding studies with membrane extracts, according to Gressent et al. ([2003]).
(§7) PA1b binding activity was present in all insect species, except for the resistant weevil strains and the pea specific pest Bruchus pisorum, regardless of the sensitivity or insensitivity of these insects to PA1b toxicity, as evaluated from our insect bioassays. […] The relative abundance of the binding sites was also slightly different in this group of species, varying from 10 pmol/mg of protein for T. pretiosum to a maximum of 79 pmol/mg of protein for M. persicae.

[2] = target: PA1b binding protein on membrane extracts; assay: as above; parameters: species or system Mamestra brassicae; details: M. brassicae membrane extracts; competition with purified 3741 isoform
Protocol: as §5, §6, §7

[3] = target: PA1b binding protein on membrane extracts; assay: as above; parameters: species or system Drosophila melanogaster; details: D. melanogaster membrane extracts; competition with purified 3741 isoform
Protocol: as §5, §6, §7

[4] = target: PA1b binding protein on membrane extracts; assay: as above; parameters: species or system Aphis gossypii; details: A. gossypii membrane extracts; competition with purified 3741 isoform
Protocol: as §5, §6, §7

Ephestia kuehniella = details: ref Delobel et al 1998; cited from earlier work
Protocol: Ephestia kuehniella was previously found to be sensitive to the toxin ([Delobel et al 1998]). In contrast, 1000 µg PA1b per g of diet had no effect on the cabbage moth Mamestra brassicae, either on the mortality or on the development and ecdysis of the insects (data not shown).

[5] = test system: midgut extracts from sensitive or resistant S. oryzae; details: ref Delobel and Rahbé, personnal communication; cited from earlier work
Description: Stating that the binding activity is widely present, while the toxicity is not, directly implies that other factors strongly influence the toxin toxicity. Pre-binding effects, such as toxin stability in the insect digestive tract, have been commonly described, either for bacterial toxins ([Keller et al. 1996]) or enzyme inhibitors ([Girard et al. 1998]). Although the structural features of PA1b, such as its cystine-knot core ([Jouvensal et al. 2003]), are known to confer high thermal, chemical and proteolytic stability ([Delobel et al. 1998]) the latter point was investigated using commercial ...

## ASCNGVCSPFEMPPCGTSACRCIPVGLVIGYCR NPSG (bicyclic or more) [PA1b, plant peptide of 37 amino acids purified from pea (Pisum sativum) seeds; entomotoxic cystine-knot peptide with three disulfide bonds]
Mamestra brassicae
  effect on mortality, development and ecdysis: no effect
Acyrthosiphon pisum; 150 µg.ml^-1 in artificial diet
  mortality: 57%
Acyrthosiphon pisum; 500 µgml^-1 in artificial diet
  mortality: total
Aphis gossypii
  lethality: 37%
Myzus persicae
  mortality: no mortality
A. famigatus
  effect on fungal growth: no effect was detected
C. albicans
  effect on fungal growth: no effect was detected
C. glabrata
  effect on fungal growth: no effect was detected
[1]
  pKd: 7.96
[2]
  pKd: 7.70
[3]
  pKd: 7.80
[4]
  pKd: 7.41
Ephestia kuehniella
  sensitivity to the toxin: sensitive
[5]
  activity of midgut extracts on PA1b: do not show any activities on PA1b
